Data taken from patent publication US9889157B2, “Phosphate-binding magnesium salts and uses thereof” (Cypress Pharmaceuticals, Inc., priority 2009, dated 2018).
Blank lines part the entries; values can stand above or below the compound they belong to.

Test: Phosphate-binding assay in phosphate-binding solution (PBS) simulating small intestinal fluid (SIF)
Description: Exemplary stock solutions suitable for phosphate-binding assays include the following: phosphate-binding solution (“PBS”) containing 10 mM KH2PO4, 30 mM Na2CO3, 80 mM NaCl, as described in Rosenbaum et al. Nephrol. Dial. Transplant. 12:961-964 (1997); acetate buffer (“AB”) solution containing 0.1N acetic acid, 0.025N sodium acetate, as described in Lowry & Lopez J. Biol. Chem. 162:421-428 (1946); ammonium molybdate (“AM”) solution containing 1% ammonium molybdate in 0.05N H2SO4, as described in Lowry & Lopez; ascorbic acid (“AA”) solution containing 1% ascorbic acid in H2O, as described in Lowry & Lopez.
In general, the phosphate-binding assay was conducted in 12×75 mm glass tubes. 4.0 mL PBS (which is a solution simulating SIF) and 20 mg putative phosphate binder were added to a glass tube and then mixed for 1 h at room temperature. 0.1 mL supernatant was pipetted from this tube to a new test tube. 3.0 mL AB, 0.3 mL AA and 0.3 mL AM solutions were added and O.D. were measured at 700 nm after 10 minutes.
The phosphate binding capacity was calculated as follows (mcg stands for micrograms): ((O.D. of sample×95)/O.D. of standard)×40=mcgPO4 left in solution ((3800−mcgPO4 left)×50)/1000=mgPO4 bound per gram of phosphate binder

[1] = Table 3, 20 mg binder in 4.0 mL PBS, 1 h, room temperature
[2] = Table 2, 20 mg binder in 4.0 mL PBS, 1 h, room temperature
[3] = Table 4, calculated from Table 3 and % Mg (or % Ca)

Compound: magnesium carnitinate [Mg carnitinate]
- PO4 binding [1]: 169 mg/g

Compound: magnesium aminobutyrate [Mg aminobutyrate]
- PO4 binding [1]: 85 mg/g
- mg PO4 bound per g compound (Table 5, additional results): 76 mg PO4 per g compound

Compound: O=C([O-])CC(O)(CC(=O)[O-])C(=O)[O-].O=C([O-])CC(O)(CC(=O)[O-])C(=O)[O-].[Mg+2].[Mg+2].[Mg+2] [Mg citrate]
- PO4 binding [2]: 16.3 mg/g
- PO4 binding [1]: 15 mg/g

Compound: O=C([O-])[O-].[Mg+2] [MgCO3, magnesium carbonate]
- PO4 binding [2]: 19.0 mg/g
- PO4 binding [1]: 22 mg/g

Compound: magnesium betainate [Mg betainate]
- PO4 binding [1]: 147 mg/g
- mg PO4 bound per g Mg or Ca in compound [3]: 1547 mg PO4 per g Mg or Ca
- mg PO4 bound per g compound (Table 4, taken from Table 3): 147 mg PO4 per g compound
- mg PO4 bound per g Mg or Ca in compound (Table 5, additional results): 1484 mg PO4 per g Mg (or Ca)
- mg PO4 bound per g compound (Table 5, additional results): 141 mg PO4 per g compound

Compound: CCC(=O)[O-].CCC(=O)[O-].[Mg+2] [Mg propionate, magnesium propionate]
- PO4 binding [1]: 59 mg/g

Compound: O=C1O[C@H]([C@@H](O)CO)C(O)=C1[O-].O=C1O[C@H]([C@@H](O)CO)C(O)=C1[O-].[Mg+2] [Mg ascorbate]
- PO4 binding [1]: 4 mg/g

Compound: O=C([O-])C(O)C(O)C(=O)[O-].[Mg+2] (stereo not shown) [Mg tartrate, magnesium tartrate]
- PO4 binding [1]: 28 mg/g

Compound: O=C([O-])[O-].[Ca+2] [CaCO3, calcium carbonate, reference compound]
- PO4 binding [2]: 10.9 mg/g

Compound: [O]=[Mg] [MgO, magnesium oxide]
- PO4 binding [2]: 184.0 mg/g
- PO4 binding [1]: ≧190 mg/g
- mg PO4 bound per g Mg or Ca in compound [3]: 315 mg PO4 per g Mg or Ca
- mg PO4 bound per g compound (Table 4, taken from Table 3): 190 mg PO4 per g compound
- mg PO4 bound per g Mg or Ca in compound (Table 5, additional results): 310 mg PO4 per g Mg (or Ca)
- mg PO4 bound per g compound (Table 5, additional results): 187 mg PO4 per g compound

Compound: magnesium lysinate [Mg lysinate]
- PO4 binding [1]: 150 mg/g
- mg PO4 bound per g Mg or Ca in compound [3]: 1948 mg PO4 per g Mg or Ca
- mg PO4 bound per g compound (Table 4, taken from Table 3): 150 mg PO4 per g compound
- mg PO4 bound per g Mg or Ca in compound (Table 5, additional results): 1792 mg PO4 per g Mg (or Ca)
- mg PO4 bound per g compound (Table 5, additional results): 138 mg PO4 per g compound
- phosphate bound by 1 gram of Mg in the salt relative to 1 gram of calcium in PhosLo (Ca acetate) (from Table 4): almost three times as much

Compound: [Mg+2].[OH-].[OH-] [Mg(OH)2, magnesium hydroxide]
- PO4 binding [2]: 176.2 mg/g
- PO4 binding [1]: 182 mg/g
- mg PO4 bound per g Mg or Ca in compound [3]: 436 mg PO4 per g Mg or Ca
- mg PO4 bound per g compound (Table 4, taken from Table 3): 182 mg PO4 per g compound
- PO4 binding (Table 6, without acid treatment): 179.0 mg/g

Compound: O=C[O-].O=C[O-].[Mg+2] [Mg formate]
- PO4 binding [1]: 6 mg/g

Compound: magnesium arginate [Mg arginate]
- PO4 binding [1]: 121 mg/g
- mg PO4 bound per g Mg or Ca in compound [3]: 1862 mg PO4 per g Mg or Ca
- mg PO4 bound per g compound (Table 4, taken from Table 3): 121 mg PO4 per g compound
- mg PO4 bound per g Mg or Ca in compound (Table 5, additional results): 1815 mg PO4 per g Mg (or Ca)
- mg PO4 bound per g compound (Table 5, additional results): 118 mg PO4 per g compound

Compound: N[C@@H](CC(=O)[O-])C(=O)[O-].[Mg+2] [Mg aspartate, magnesium aspartate]
- PO4 binding [1]: 50 mg/g

Compound: NCC(=O)[O-].NCC(=O)[O-].[Mg+2] [Mg glycinate, magnesium glycinate]
- PO4 binding [1]: 176 mg/g
- mg PO4 bound per g Mg or Ca in compound [3]: 1248 mg PO4 per g Mg or Ca
- mg PO4 bound per g compound (Table 4, taken from Table 3): 176 mg PO4 per g compound
- mg PO4 bound per g Mg or Ca in compound (Table 5, additional results): 1255 mg PO4 per g Mg (or Ca)
- mg PO4 bound per g compound (Table 5, additional results): 177 mg PO4 per g compound

Compound: CC(=O)[O-].CC(=O)[O-].[Mg+2] [Mg acetate]
- PO4 binding [1]: 4 mg/g

Compound: [Cl-].[Cl-].[Mg+2] [Mg chloride, magnesium chloride]
- PO4 binding [1]: 4 mg/g

Compound: O=C([O-])CCCCC(=O)[O-].[Mg+2] [Mg adipate]
- PO4 binding [1]: 6 mg/g

More lines, now with the values ahead:

- PO4 binding [1]: 15 mg/g
Compound: CC(O)C(=O)[O-].CC(O)C(=O)[O-].[Mg+2] (stereo not shown) [Mg lactate]

- PO4 binding [1]: 20 mg/g
Compound: O=C([O-])c1cc(=O)[nH]c(=O)[nH]1.O=C([O-])c1cc(=O)[nH]c(=O)[nH]1.[Mg+2] [Mg orotate]

- PO4 binding [1]: 4 mg/g
Compound: O=C([O-])/C=C/C(=O)[O-].[Mg+2] [Mg fumarate]

- PO4 binding [1]: 18 mg/g
Compound: O=C([O-])CCC(=O)[O-].[Mg+2] [Mg succinate]

- PO4 binding [1]: 15 mg/g
Compound: O=C([O-])/C=C\C(=O)[O-].[Mg+2] [Mg maleate]

- PO4 binding [1]: 9 mg/g
Compound: O=S(=O)([O-])[O-].[Mg+2] [Mg sulfate]

- PO4 binding [1]: 4 mg/g
Compound: O=C([O-])c1cccnc1.O=C([O-])c1cccnc1.[Mg+2] [Mg nicotinate]

- mg PO4 bound per g compound (Table 5, additional results): 29 mg PO4 per g compound
Compound: O=C([O-])CC(O)C(=O)[O-].[Mg+2] (stereo not shown) [Mg malate]

- PO4 binding [1]: 15 mg/g
Compound: Mg stearate

- PO4 binding [2]: 19.0 mg/g
Compound: O.O.O.O.O.O.O.O=S(=O)([O-])[O-].[Mg+2] [MgSO4•7H2O]
